Assays:
[1] = test system: Citrobacter freundii; experiment: Antibacterial activity against drug-resistant Citrobacter freundii isolate producing metallo-beta-lactamase NDM-1 with carbapenemase activity isolated from urine culture of cerebral vascular malformation patient; assay type: functional
[2] = test system: Citrobacter freundii; experiment: Antibacterial activity against drug-resistant Citrobacter freundii isolate producing metallo-beta-lactamase NDM-1 with carbapenemase activity isolated from urine culture of cerebral vascular malformation patient by Etest; assay type: functional, organism-based

Compound	MIC [1]	MIC [2]
C[C@@H](O)[C@H]1C(=O)N2C(C(=O)O)=C(S[C@@H]3CN[C@H](C(=O)Nc4cccc(C(=O)O)c4)C3)[C@H](C)[C@H]12 [ERTAPENEM]	> 32 µg/mL	
C[C@@H](O)[C@H]1C(=O)N2C(C(=O)O)=C(S[C@@H]3CN[C@H](C(=O)N(C)C)C3)[C@H](C)[C@H]12 [MEROPENEM]	> 32 µg/mL	
C[C@@H](O)[C@H]1C(=O)N2C(C(=O)O)=C(SCCNC=N)C[C@H]12 [IMIPENEM ANHYDROUS]	> 32 µg/mL	
COLISTIN		0.5 µg/mL
